# Experimental data as given in US20060281806A1, “Treatment and inhibition of disease conditions using flexible heteroarotinoids” (priority 2005, published 2006).
# Assays:
# [1] = Alanine aminotransferase (ALT) activity in plasma of mice; assay type: in vivo, mouse; details: end of treatment, 10 mg/kg/day by gavage
# Experimental: At the end of the treatment period, blood was drawn from each animal. Plasma was separated by centrifugation and stored at −70° C. The activity of ALT was determined in aliquots of plasma by standard spectrophotometric enzymatic techniques which are based on the reduction of pyruvate by lactate dehydrogenase (28). The method measures NADH disappearance with time of incubation at 37° C. The activities are expressed as mm/L/min. Two different amounts of plasma were used in each assay to assure measurement of the maximum rate.
# B16 mouse melanoma = test: B16 melanoma syngeneic tumor model; assay type: in vivo; details: oral 60 mg/kg/day
# Experimental: (§1) FIG. 12. Various Xenograft tumors stained with CD34 antibodies (brown) to identify endothelium. The B16 mouse melanoma cell line was established as a syngeneic tumor in an immunocompetent mouse model and the human Caki renal cancer and A2780 ovarian xenograft tumors in immunocompromised mice. The treated mice were gavaged with 60 mg/kg/day SHetA2 and the untreated were gavaged with solvent only. The tumors were excised and sections were stained with the anti-CD34 antibody to detect endothelial cells (brown stain).
# (§2) Survival was the primary endpoint of those studies. […] Tumor growth was the primary endpoint of the renal cancer study.
# [2] = tested on: human Caki renal cancer xenografts; test: Caki renal cancer xenograft model; assay type: in vivo, mouse
# Experimental: as §1
# FIG. 20. Mice harboring Caki renal cancer xenografts were treated with 60 mg/kg/day SHetA2 or PEG400 vehicle for 15 days. After another 15 days of growth, the tumors were removed, fixed, embedded and sections. Sections were stained with PAS to identify glycoproteins and lysosomes. The untreated tumor is on the left and the treated tumor is on the right.
# as §2
# [3] = tested on: organotypic cultures of normal endometrial cells treated with DMBA; test: Chemoprevention in DMBA-treated organotypic cultures of normal endometrial cells; assay type: cell-based; details: histology and karyometric analysis
# Excerpt: Untreated: The specimen is cellular with both surface and mid-gel cells presence in abundance. Two cell types are clearly present. One appears to be stromal. The nuclei are thin and spindle shaped and the cytoplasm is similar. When cut in cross-section the nuclei are very small and round and hyperchromatic. The other cells have large, oval to almost boxcar nuclei with small nucleoli and abundant cytoplasm. Numerous mitosis are present. The epithelial cells are almost syncitial in nature and appear to cling to one another. With DMBA Carcinogen: The specimen is cellular. The cells present have lost their cytoplasm. There is more pleomorphism of the cells and many are very hyperchromatic. Mitoses are very numerous-approximately 2× the number in untreated. Cells no longer are together but are distinct one from another. Stromal cells intermix with the epithelial cells. […]
# FIG. 19 illustrates a typical experiment in which organotypic cultures of normal endometrial cells were treated with a carcinogen called DMBA and developed the cancer phenotype. […] All segmented nuclei were then subjected to texture feature extraction using TICAS software, resulting in 95 textrue features for each nucleus that were subjected to quantitative analysis.
compound,measurement,setting,value
CC1(C)CC(C)(C)c2cc(NC(=S)Nc3ccc([N+](=O)[O-])cc3)ccc2S1 [SHetA2],ALT Activity,[1],118.5 ± 153.4 mm/liter/min
same,survival,B16 mouse melanoma; melanoma model,improved survival
same,development of blood vessels inside tumors (anti-CD34 staining),B16 mouse melanoma; melanoma,inhibited the development of blood vessels
same,tumor growth,"[2]; renal cancer model, oral 60 mg/kg/day",decreased tumor growth
same,PAS stain: general glycoprotein expression and lysosomal staining,"[2]; renal xenograft tumors, 60 mg/kg/day for 15 days, versus untreated tumors",increase in general glycoprotein expression and lysosomal staining
same,development of blood vessels inside tumors (anti-CD34 staining),"[2]; renal, oral 60 mg/kg/day",inhibited the development of blood vessels
same,development of the DMBA-induced cancer phenotype,[3],prevented the development of this phenotype
